Source: patent US20260078341A1, “TREATMENT OF CANCER USING CHIMERIC ANTIGEN RECEPTOR” (Novartis AG, priority 2014, published 2026)
Like-named read-outs stand apart in the source and are kept apart here.

What was measured:
[1] = tested on: A/H1N1/California/07/2009 influenza; assay: Anti-A/H1N1/California/07/2009 influenza IgG and IgM levels in serum; assay type: in vivo, human; settings: baseline to 4 weeks post vaccination, vs placebo
Description: FIGS. 44A and 44B. Graphic representations of IgG and IgM levels before and after influenza vaccination. Levels of anti-A/H1N1/California/07/2009 influenza IgG and IgM were measured in serum obtained from subjects before and 4 weeks post influenza vaccination.

[2] = tested on: A/H1N1 strain A/New Jersey/8/76; assay type: in vivo, human; settings: 4 weeks after seasonal influenza vaccination
[3] = N = 53

CO[C@H]1C[C@@H]2CC[C@@H](C)[C@@](O)(O2)C(=O)C(=O)N2CCCC[C@H]2C(=O)O[C@H]([C@H](C)C[C@@H]2CC[C@@H](OCCO)[C@H](OC)C2)CC(=O)[C@H](C)/C=C(\C)[C@@H](O)[C@@H](OC)C(=O)[C@H](C)C[C@H](C)/C=C/C=C/C=C/1C [RAD001, (1R,9S,12S,15R,16E,18R,19R,21R,23S,24E,26E,28E,30S,32S,35R)-1,18-dihydroxy-12-{(1R)-2-[(1S,3R,4R)-4-(2-hydroxyethoxy)-3-methoxycyclohexyl]-1-methylethyl}-19,30-dimethoxy-15,17,21,23,29,35-hexamethyl-11,36-dioxa-4-azatricyclo[30.3.1.0^4,9]hexatriaconta-16,24,26,28-tetraene-2,3,10,14,20-pentaone]
change from baseline in anti-H1N1 influenza IgG and IgM levels [1]: No significant difference | Percentage of subjects who seroconvert to heterologous strain A/H1N1 A/NewJersey/8/76 ([2]; RAD001 5 mg weekly): 16% | Percentage of subjects who seroconvert to heterologous strain A/H1N1 A/NewJersey/8/76 ([2]; RAD001 20 mg weekly): 8% | Treatment-related AE: Blood cholesterol increased ([3]; RAD001 0.5 mg daily): 2 (3.8%) n (%) | Treatment-related AE: Conjunctivitis ([3]; RAD001 0.5 mg daily): 0 n (%) | Treatment-related AE: Diarrhea ([3]; RAD001 0.5 mg daily): 1 (1.9%) n (%) | Treatment-related AE: Dry mouth ([3]; RAD001 0.5 mg daily): 0 n (%) | Treatment-related AE: Dyspepsia ([3]; RAD001 0.5 mg daily): 0 n (%) | Treatment-related AE: Erythema ([3]; RAD001 0.5 mg daily): 0 n (%) | Treatment-related AE: Fatigue ([3]; RAD001 0.5 mg daily): 0 n (%) | Treatment-related AE: Headache ([3]; RAD001 0.5 mg daily): 0 n (%) | Treatment-related AE: Insomnia ([3]; RAD001 0.5 mg daily): 1 (1.9%) n (%) | Treatment-related AE: Limb discomfort ([3]; RAD001 0.5 mg daily): 0 n (%) | Treatment-related AE: Low density lipoprotein increased ([3]; RAD001 0.5 mg daily): 2 (3.8%) n (%) | Treatment-related AE: Mouth ulceration ([3]; RAD001 0.5 mg daily): 6 (11.3%) n (%) | Treatment-related AE: Mucosal inflammation ([3]; RAD001 0.5 mg daily): 0 n (%) | Treatment-related AE: Neutropenia ([3]; RAD001 0.5 mg daily): 0 n (%) | Treatment-related AE: Oral pain ([3]; RAD001 0.5 mg daily): 0 n (%) | Treatment-related AE: Paresthesia oral ([3]; RAD001 0.5 mg daily): 2 (3.8%) n (%) | Treatment-related AE: Pruritus ([3]; RAD001 0.5 mg daily): 0 n (%) | Treatment-related AE: Stomatitis ([3]; RAD001 0.5 mg daily): 0 n (%) | Treatment-related AE: Thrombocytopenia ([3]; RAD001 0.5 mg daily): 0 n (%) | Treatment-related AE: Tongue ulceration ([3]; RAD001 0.5 mg daily): 3 (5.7%) n (%) | Treatment-related AE: Urinary tract infection ([3]; RAD001 0.5 mg daily): 0 n (%) | Treatment-related AEs: Patients with AE(s) ([3]; RAD001 0.5 mg daily): 22 (41.5%) n (%) | Treatment-related AEs: Total AE(s) ([3]; RAD001 0.5 mg daily): 35 n (%) | Treatment-related AE: Blood cholesterol increased ([3]; RAD001 5 mg weekly): 2 (3.8%) n (%) | Treatment-related AE: Conjunctivitis ([3]; RAD001 5 mg weekly): 2 (3.8%) n (%) | Treatment-related AE: Diarrhea ([3]; RAD001 5 mg weekly): 4 (7.5%) n (%) | Treatment-related AE: Dry mouth ([3]; RAD001 5 mg weekly): 0 n (%) | Treatment-related AE: Dyspepsia ([3]; RAD001 5 mg weekly): 3 (5.7%) n (%) | Treatment-related AE: Erythema ([3]; RAD001 5 mg weekly): 2 (3.8%) n (%) | Treatment-related AE: Fatigue ([3]; RAD001 5 mg weekly): 2 (3.8%) n (%) | Treatment-related AE: Headache ([3]; RAD001 5 mg weekly): 2 (3.8%) n (%) | Treatment-related AE: Insomnia ([3]; RAD001 5 mg weekly): 2 (3.8%) n (%) | Treatment-related AE: Limb discomfort ([3]; RAD001 5 mg weekly): 2 (3.8%) n (%) | Treatment-related AE: Low density lipoprotein increased ([3]; RAD001 5 mg weekly): 1 (1.9%) n (%) | Treatment-related AE: Mouth ulceration ([3]; RAD001 5 mg weekly): 2 (3.8%) n (%) | Treatment-related AE: Mucosal inflammation ([3]; RAD001 5 mg weekly): 0 n (%) | Treatment-related AE: Neutropenia ([3]; RAD001 5 mg weekly): 0 n (%) | Treatment-related AE: Oral pain ([3]; RAD001 5 mg weekly): 2 (3.8%) n (%) | Treatment-related AE: Paresthesia oral ([3]; RAD001 5 mg weekly): 0 n (%) | Treatment-related AE: Pruritus ([3]; RAD001 5 mg weekly): 2 (3.8%) n (%) | Treatment-related AE: Stomatitis ([3]; RAD001 5 mg weekly): 0 n (%)
